Data as given in ChEMBL document CHEMBL5137047, “Design, synthesis and anti-inflammatory evaluation of aloe-emodin derivatives as potential modulators of Akt, NF-κB and JNK signaling pathways” (Eur J Med Chem, 2022).
Active and inactive are the calls of the source. The calls are words filed in the database; no cut-off is given here.

Assays:
RAW264.7 [1] = assay: Antiinflammatory activity against mouse RAW264.7 cells assessed as inhibition of LPS-induced nitric oxide production at 5 uM measured after 24 hrs; type: functional, cell-based
RAW264.7 [2] = assay: Inhibition of IL-6 mRNA expression in LPS-stimulated mouse RAW264.7 cells measured after 24 hrs by qRT-PCR analysis; type: functional, cell-based; settings: dose 3.125-12.5 µM, DDE = dose-dependent effect
RAW264.7 [3] = assay: Downregulation of iNOS protein expression in LPS-stimulated mouse RAW264.7 cells measured after 24 hrs by Western blot analysis; type: functional, cell-based; settings: dose 3.125-12.5 µM
RAW264.7 [4] = assay: Inhibition of LPS-induced NF-kappaB activation in mouse RAW264.7 cells assessed as reduction in translocation of p65 from cytoplasm to nucleus at 3.125 to 12.5 uM preincubated for 24 hrs followed by LPS addition and measured after 30 mins by immunofluorescence analysis; type: cell-based; settings: dose 3.125-12.5 µM
RAW264.7 [5] = assay: Inhibition of IL-6 production in LPS-stimulated mouse RAW264.7 cells measured after 24 hrs by ELISA; type: functional, cell-based; settings: dose 3.125-12.5 µM, DDE = dose-dependent effect
[6] = molecular target: c-Jun N-terminal kinase (Mus musculus) (UniProt Q91Y86+Q9WTU6+Q61831); assay: Inhibition of JNK phosphorylation in LPS-induced mouse RAW264.7 cells measured after 24 hrs by Western blot analysis; type: cell-based; settings: dose 3.125-12.5 µM, DDE = dose-dependent effect
c-Jun N-terminal kinase (Mus musculus), sequence (Q61831 whole entry, looked up): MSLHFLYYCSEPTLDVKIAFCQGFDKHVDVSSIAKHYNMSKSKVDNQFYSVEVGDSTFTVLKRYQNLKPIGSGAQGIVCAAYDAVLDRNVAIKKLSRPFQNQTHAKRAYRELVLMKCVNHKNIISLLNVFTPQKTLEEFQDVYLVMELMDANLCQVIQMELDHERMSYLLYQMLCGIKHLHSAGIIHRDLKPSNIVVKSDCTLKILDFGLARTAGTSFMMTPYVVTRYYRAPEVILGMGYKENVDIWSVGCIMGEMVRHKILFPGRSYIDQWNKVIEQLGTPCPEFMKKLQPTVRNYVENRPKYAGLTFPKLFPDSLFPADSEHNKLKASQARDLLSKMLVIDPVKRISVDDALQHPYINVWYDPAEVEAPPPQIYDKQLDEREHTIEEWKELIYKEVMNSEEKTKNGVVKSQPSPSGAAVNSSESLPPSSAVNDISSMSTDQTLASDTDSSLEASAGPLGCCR
c-Jun N-terminal kinase (Mus musculus), sequence (Q91Y86 whole entry, looked up): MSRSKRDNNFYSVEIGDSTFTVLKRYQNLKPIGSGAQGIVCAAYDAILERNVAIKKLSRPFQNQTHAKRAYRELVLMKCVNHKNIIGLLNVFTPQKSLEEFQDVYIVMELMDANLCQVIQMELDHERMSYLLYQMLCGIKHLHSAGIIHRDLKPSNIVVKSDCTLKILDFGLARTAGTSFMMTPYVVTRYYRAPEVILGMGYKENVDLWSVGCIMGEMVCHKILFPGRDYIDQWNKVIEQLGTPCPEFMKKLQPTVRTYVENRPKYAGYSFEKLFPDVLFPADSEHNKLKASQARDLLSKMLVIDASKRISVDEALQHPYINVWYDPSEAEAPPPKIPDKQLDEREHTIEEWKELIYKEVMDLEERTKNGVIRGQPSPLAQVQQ
c-Jun N-terminal kinase (Mus musculus), sequence (Q9WTU6 whole entry, looked up): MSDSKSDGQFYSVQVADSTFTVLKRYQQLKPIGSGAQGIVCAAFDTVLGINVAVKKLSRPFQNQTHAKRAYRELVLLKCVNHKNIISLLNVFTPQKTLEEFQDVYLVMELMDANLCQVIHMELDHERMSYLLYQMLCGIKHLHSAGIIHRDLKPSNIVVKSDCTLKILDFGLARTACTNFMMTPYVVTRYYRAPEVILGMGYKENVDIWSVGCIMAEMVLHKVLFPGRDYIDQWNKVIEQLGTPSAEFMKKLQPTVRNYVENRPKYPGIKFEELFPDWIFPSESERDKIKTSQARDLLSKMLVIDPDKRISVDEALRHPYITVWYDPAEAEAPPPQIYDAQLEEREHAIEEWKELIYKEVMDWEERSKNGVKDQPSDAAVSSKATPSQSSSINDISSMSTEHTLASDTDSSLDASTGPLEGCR

RAW264.7 [7] = assay: Cytotoxicity against mouse RAW264.7 cells assessed as reduction in cell viability at upto 25 uM measured after 24 hrs by MTT assay; type: toxicity, cell-based; settings: raw264.7, 24 h
RAW264.7 [8] = assay: Inhibition of IL-1beta production in LPS-stimulated mouse RAW264.7 cells measured after 24 hrs by ELISA; type: functional, cell-based; settings: dose 3.125-12.5 µM, DDE = dose-dependent effect
RAW264.7 [9] = assay: Inhibition of COX-2 mRNA expression in LPS-stimulated mouse RAW264.7 cells measured after 24 hrs by qRT-PCR analysis; type: functional, cell-based; settings: dose 3.125-12.5 µM, DDE = dose-dependent effect
RAW264.7 [10] = assay: Inhibition of IL-1beta mRNA expression in LPS-stimulated mouse RAW264.7 cells measured after 24 hrs by qRT-PCR analysis; type: functional, cell-based; settings: dose 3.125-12.5 µM, DDE = dose-dependent effect
RAW264.7 [11] = assay: Antiinflammatory activity against mouse RAW264.7 cells assessed as inhibition of LPS-induced nitric oxide production measured after 24 hrs; type: functional, cell-based; settings: RAW264.7, 24 h
RAW264.7 [12] = assay: Inhibition of TNF-alpha production in LPS-stimulated mouse RAW264.7 cells measured after 24 hrs by ELISA; type: functional, cell-based; settings: dose 3.125-12.5 µM, DDE = dose-dependent effect
RAW264.7 [13] = assay: Inhibition of LPS-induced NF-kappaB activation in mouse RAW264.7 cells assessed as upregulation of IkappaBalpha protein expression at 3.125 to 12.5 uM preincubated for 24 hrs followed by LPS addition and measured after 30 mins by Western blot analysis; type: cell-based; settings: dose 3.125-12.5 µM, time 24.5 hrs
RAW264.7 [14] = assay: Inhibition of Akt phosphorylation in LPS-stimulated mouse RAW264.7 cells at 3.125 to 12.5 uM measured after 24 hrs by Western blot analysis; type: cell-based; settings: dose 3.125-12.5 µM
RAW264.7 [15] = assay: Downregulation of COX-2 protein expression in LPS-stimulated mouse RAW264.7 cells measured after 24 hrs by Western blot analysis; type: functional, cell-based; settings: dose 3.125-12.5 µM
RAW264.7 [16] = assay: Inhibition of LPS-induced NF-kappaB activation in mouse RAW264.7 cells assessed as reduction in p65 expression in nucleus at 3.125 to 12.5 uM preincubated for 24 hrs followed by LPS addition and measured after 30 mins by Western blot analysis; type: cell-based; settings: dose 3.125-12.5 µM
RAW264.7 [17] = assay: Inhibition of PGE2 production in LPS-stimulated mouse RAW264.7 cells measured after 24 hrs by ELISA; type: functional, cell-based; settings: dose 3.125-12.5 µM, DDE = dose-dependent effect

Structure (SMILES) | NO production inhibition (active/inactive call) (RAW264.7 [1]) | other results
O=C(CN1CCN(c2ccccc2)CC1)OCc1cc(O)c2c(c1)C(=O)c1cccc(O)c1C2=O | Active | 
O=C(CN1CCCC1)OCc1cc(O)c2c(c1)C(=O)c1cccc(O)c1C2=O | Active | 
CC(=O)Oc1cccc2c1C(=O)c1c(OC(C)=O)cc(COC(=O)CN3CCCCC3)cc1C2=O | Active | 
CC(=O)Oc1cccc2c1C(=O)c1c(OC(C)=O)cc(COC(=O)CN3CCSCC3)cc1C2=O | Active | 
CC(=O)Oc1cccc2c1C(=O)c1c(OC(C)=O)cc(COC(=O)CN3CCN(c4ccccc4)CC3)cc1C2=O | Active | 
CC(=O)Oc1cccc2c1C(=O)c1c(OC(C)=O)cc(COC(=O)CN3CCC(OC(C)=O)CC3)cc1C2=O | Active | 
CCN(CC)CC(=O)OCc1cc(O)c2c(c1)C(=O)c1cccc(O)c1C2=O | Active | 
O=C(CN1CCC(O)CC1)OCc1cc(O)c2c(c1)C(=O)c1cccc(O)c1C2=O | Active | 
O=C(CN1CCCCC1)OCc1cc(O)c2c(c1)C(=O)c1cccc(O)c1C2=O | Active | 
CCCN(C)CC(=O)OCc1cc(O)c2c(c1)C(=O)c1cccc(O)c1C2=O | Active | 
O=C(CN1CCOCC1)OCc1cc(OC(=O)c2ccccc2)c2c(c1)C(=O)c1cccc(OC(=O)c3ccccc3)c1C2=O | Active | 
O=C(CN1CCOCC1)OCc1cc(O)c2c(c1)C(=O)c1cccc(O)c1C2=O | Active | 
CC(C)C(=O)Oc1cccc2c1C(=O)c1c(OC(=O)C(C)C)cc(COC(=O)CN3CCOCC3)cc1C2=O | Active | 
CN1CCN(CC(=O)OCc2cc(O)c3c(c2)C(=O)c2cccc(O)c2C3=O)CC1 |  | inhibition (RAW264.7 [2]): Dde; Activity (RAW264.7 [3]): Active; inhibition (RAW264.7 [4]): Active; inhibition (RAW264.7 [5]): Dde; inhibition [6]: Dde; Activity (RAW264.7 [7]): Non-Toxic; inhibition (RAW264.7 [8]): Dde; inhibition (RAW264.7 [9]): Dde; inhibition (RAW264.7 [10]): Dde; IC50 (RAW264.7 [11]): 3.15 µM; inhibition (RAW264.7 [12]): Dde; inhibition (RAW264.7 [13]): Active; inhibition (RAW264.7 [14]): Active; Activity (RAW264.7 [15]): Active; inhibition (RAW264.7 [16]): Active; inhibition (RAW264.7 [17]): Dde
CC(=O)Oc1cccc2c1C(=O)c1c(OC(C)=O)cc(COC(=O)CN3CCOCC3)cc1C2=O | Active | 
CC(C)N(C)CC(=O)OCc1cc(O)c2c(c1)C(=O)c1cccc(O)c1C2=O | Active | 
O=C(CN1CCSCC1)OCc1cc(O)c2c(c1)C(=O)c1cccc(O)c1C2=O | Active | 
O=C(CN1CCN(c2ccc(F)cc2)CC1)OCc1cc(O)c2c(c1)C(=O)c1cccc(O)c1C2=O | Active | 
CC(=O)Oc1cccc2c1C(=O)c1c(OC(C)=O)cc(COC(=O)CN3CCN(c4ccc(F)cc4)CC3)cc1C2=O | Active | 
